From PMC10804372, “Degradation by Design: New Cyclin K Degraders from Old CDK Inhibitors” (ACS Chemical Biology, 2024)

How the values were obtained:
Cyclin K [1] = assay: Cyclin K levels by Western blot after single-concentration treatment; type: cell-based, human; settings: HEK293T cells, 1 μM for 2 h; for Remaining Cyclin K (%): quantified from Western blots, mean ± SD, three independent experiments; for cyclin K degradation: Western blot
Procedure: (§1) HEK293T human […] kidney cells were cultured in DMEM (Gibco/Life Technologies), containing 25 mM D-glucose, 4 mM L-glutamine, and 1 mM sodium pyruvate, and supplemented with 10% (v/v) FBS and 1% nonessential amino acids (Gibco/Life Technologies). Cells were incubated at 37 °C in a humidified atmosphere with 5% CO2.
(§2) Cells were washed with PBS and lysed (20 mM HEPES pH 7.5, 10% glycerol, 0.4 M KCl, 0.4% Triton X-100, 15 mM EDTA, and 1× protease and phosphatase inhibitors). The insoluble fraction was removed by centrifugation. Protein quantification was performed using a Bradford assay and compared to a BSA calibration curve. Equal amounts of lysates were run on SDS–PAGE 4–12% Bis–Tris Protein Gels (NuPAGE, Thermo Fisher Scientific) and then transferred onto Immobilon-P PVDF Membrane (Millipore, IPVH00010) using a Mini Trans-Blot Cell (Bio-Rad, 1703930). The membranes were blocked with 5% bovine albumin serum (BSA) in Tris-buffered saline with Tween 20 (TBS-T) and incubated with primary antibodies overnight at 4 °C. The membranes were washed three times with TBS-T and incubated with HRP-conjugated secondary antibody (BioRad) for 2 h. Membranes were washed again three times with TBS-T before being developed using Pierce ECL Western Blotting Substrate (Thermo, 32106) and visualized using LI-COR. Antibodies were purchased from Cell Signaling Technology: anti-GAPDH (D4C6R) and anti-DDB1 (D4C8) or Bethyl Laboratories: anti-Cyclin K (A301-939A). The following HRP-linked secondary antibodies were used by dilution in 5% BSA/TBS-T: antirabbit IgG (BioRad, 5213–2504) and antimouse IgG (BioRad, 103005).
(§3) Unedited blots containing the marker lane are available on request. Western blots were quantified using ImageJ. Cyclin K levels were normalized using GAPDH as a loading control. DC50 values were calculated from concentration–response curves using nonlinear regression fit to a 4-parameter curve by GraphPad Prism.

CDK9 = settings: cited from earlier work
PAMPA permeability = type: in vitro ADME; settings: for Papp: pH 7.4, PAMPA, pH7.4, read-out: pH7.4 Papp x 10^-6
Cyclin K [2] = assay: Cyclin K degradation concentration-response (DC50, DMax) by Western blot; type: cell-based, human; settings: for DMax (%) / DC50: HEK293T, Western blot quantification, 3 biological repeats; for DC50: read-out: CycK DC50
Procedure: With the aim of comparing the degradation ability of the new analogues, we derived DC50 values by using Western blotting (Table 5). […] This approach has been previously used to improve the potency of BCL6 degraders.[33] We therefore also measured CDK12 affinity using the KINOMEscan binding assay (Table 5).[34]
as §1, §2, §3

CDK12 = molecular target: T1, CDK12 (Homo sapiens, UniProt Q9NYV4); assay: KINOMEscan binding assay (Eurofins DiscoverX); settings: for Kd: KINOMEscan
T1 construct: purchased Eurofins DiscoverX (KINOMEscan service)

HEK293T cells = assay: Proteome-wide quantitation by mass spectrometry (TMT); type: cell-based, human; settings: for number of proteins showing at least a −0.5 log2 fold change / cyclin K log2 fold decrease: HEK293T, 1 μM; for number of proteins showing at least a −0.5 log2 fold change: 2 h treatment; for cyclin K log2 fold decrease: 2 h vs DMSO; for log2FC compound 21 / log2FC compound 37: 1 uM 2h vs DMSO
CDK1 = settings: cited from earlier work
CDK5 = settings: cited from earlier work

T1 sequence (Q9NYV4 whole entry): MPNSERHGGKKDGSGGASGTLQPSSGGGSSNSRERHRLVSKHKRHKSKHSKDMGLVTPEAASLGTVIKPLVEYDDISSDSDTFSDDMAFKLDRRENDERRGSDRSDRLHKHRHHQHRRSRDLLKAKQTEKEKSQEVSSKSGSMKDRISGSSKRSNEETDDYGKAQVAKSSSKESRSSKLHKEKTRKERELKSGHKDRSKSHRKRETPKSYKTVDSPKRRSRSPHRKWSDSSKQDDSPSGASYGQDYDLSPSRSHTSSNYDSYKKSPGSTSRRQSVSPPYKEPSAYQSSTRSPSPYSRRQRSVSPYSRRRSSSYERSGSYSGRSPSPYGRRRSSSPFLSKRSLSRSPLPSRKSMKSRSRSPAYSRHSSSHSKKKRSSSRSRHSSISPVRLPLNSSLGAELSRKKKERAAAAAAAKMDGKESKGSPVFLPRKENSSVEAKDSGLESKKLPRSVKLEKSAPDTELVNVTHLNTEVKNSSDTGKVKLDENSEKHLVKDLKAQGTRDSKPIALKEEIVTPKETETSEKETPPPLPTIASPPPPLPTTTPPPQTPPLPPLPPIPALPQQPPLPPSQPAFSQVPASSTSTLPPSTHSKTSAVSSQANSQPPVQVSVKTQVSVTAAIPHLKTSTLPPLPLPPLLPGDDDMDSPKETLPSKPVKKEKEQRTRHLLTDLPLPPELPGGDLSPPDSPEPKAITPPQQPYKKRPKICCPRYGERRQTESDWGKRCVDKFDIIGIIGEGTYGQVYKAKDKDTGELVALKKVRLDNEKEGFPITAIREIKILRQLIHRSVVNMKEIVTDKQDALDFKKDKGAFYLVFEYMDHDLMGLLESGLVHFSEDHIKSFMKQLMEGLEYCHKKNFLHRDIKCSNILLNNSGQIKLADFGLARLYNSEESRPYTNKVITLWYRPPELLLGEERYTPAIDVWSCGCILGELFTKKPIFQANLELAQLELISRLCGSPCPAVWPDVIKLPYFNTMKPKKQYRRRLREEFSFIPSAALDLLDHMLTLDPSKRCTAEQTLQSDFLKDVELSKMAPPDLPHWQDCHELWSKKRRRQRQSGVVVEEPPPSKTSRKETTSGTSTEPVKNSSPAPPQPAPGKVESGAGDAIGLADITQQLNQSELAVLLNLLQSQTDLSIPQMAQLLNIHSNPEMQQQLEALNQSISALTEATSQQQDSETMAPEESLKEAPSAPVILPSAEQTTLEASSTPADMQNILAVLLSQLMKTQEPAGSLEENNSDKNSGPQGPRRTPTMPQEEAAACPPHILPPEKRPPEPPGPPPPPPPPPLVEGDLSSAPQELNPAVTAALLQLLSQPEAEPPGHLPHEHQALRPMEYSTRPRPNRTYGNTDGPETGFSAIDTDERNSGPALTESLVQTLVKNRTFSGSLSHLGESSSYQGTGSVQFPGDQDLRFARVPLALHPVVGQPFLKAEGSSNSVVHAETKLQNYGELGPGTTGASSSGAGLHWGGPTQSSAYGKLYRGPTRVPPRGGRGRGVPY

CC[C@H](CO)Nc1nc(NCc2ccccc2)c2ncn(C(C)C)c2n1 [compound 2, reference compound]
Remaining Cyclin K (%) (Cyclin K [1]): 99 ± 1% | activity at CDK9 (CDK9): sub-μM activity

CC[C@H](CO)Nc1nc(NCc2ccc(-c3ccc(O)cn3)cc2)c2ncn(C(C)C)c2n1 [compound 8]
Remaining Cyclin K (%) (Cyclin K [1]): 94 ± 9% | Papp (PAMPA permeability): < 0.3 ×10⁻⁶ cm/s

CC[C@H](CO)Nc1nc(NCc2ccc(-c3cc(=O)cc[nH]3)cc2)c2ncn(C(C)C)c2n1 [compound 15]
cyclin K degradation (Cyclin K [1]): total loss of degradation ability | Remaining Cyclin K (%) (Cyclin K [1]): 89 ± 11% | DMax (%) (Cyclin K [2]): >95% | DC50 (Cyclin K [2]): 18 nM | Kd (CDK12): 86 nM | Papp (PAMPA permeability): < 0.2 ×10⁻⁶ cm/s

CC[C@H](CO)Nc1nc(NCc2ccc(-c3ncccc3O)cc2)c2ncn(C(C)C)c2n1 [compound 20]
cyclin K degradation (Cyclin K [1]): reduced degradation ability compared to CR8 | Remaining Cyclin K (%) (Cyclin K [1]): 35 ± 3% | Papp (PAMPA permeability): < 0.4 ×10⁻⁶ cm/s

CC[C@H](CO)Nc1nc(NCc2ccc(C3=CCOCC3)cc2)c2ncn(C(C)C)c2n1 [compound 21]
cyclin K degradation (Cyclin K [1]): complete degradation comparable to CR8 | Remaining Cyclin K (%) (Cyclin K [1]): 1 ± 1% | DMax (%) (Cyclin K [2]): >95% | DC50 (Cyclin K [2]): 32 nM | Kd (CDK12): 280 nM | PAMPA permeability (PAMPA permeability): comparable permeabilities | Papp (PAMPA permeability): 40.2 ×10⁻⁶ cm/s | number of proteins showing at least a −0.5 log2 fold change (HEK293T cells): six | cyclin K log2 fold decrease (HEK293T cells): 2.47 log2 fold | log2FC compound 21 (HEK293T cells; protein CBX6): -0.5911 | log2FC compound 21 (HEK293T cells; protein CCNK (Cyclin-K)): -2.4569 | log2FC compound 21 (HEK293T cells; protein CDK13): -0.9121 | log2FC compound 21 (HEK293T cells; protein FYTTD1): -0.5054 | log2FC compound 21 (HEK293T cells; protein HES1): 0.4216

CC[C@H](CO)Nc1nc(NCc2ccc(C3CCCCC3)cc2)c2ncn(C(C)C)c2n1 [compound 23]
cyclin K degradation (Cyclin K [1]): degradation ability was significantly reduced | Remaining Cyclin K (%) (Cyclin K [1]): 74 ± 10% | Papp (PAMPA permeability): 12.7 ×10⁻⁶ cm/s

CC[C@H](CO)Nc1nc(NCc2ccc(N3CCOCC3)cc2)c2ncn(C(C)C)c2n1 [compound 25]
cyclin K degradation (Cyclin K [1]): only partial degradation | Remaining Cyclin K (%) (Cyclin K [1]): 41 ± 23% | PAMPA permeability (PAMPA permeability): comparable permeabilities | Papp (PAMPA permeability): 41 ×10⁻⁶ cm/s

CC[C@H](CO)Nc1nc(NCc2ccc(-c3ccco3)cc2)c2ncn(C(C)C)c2n1 [compound 29]
cyclin K degradation (Cyclin K [1]): complete degradation | Remaining Cyclin K (%) (Cyclin K [1]): 3 ± 2% | DMax (%) (Cyclin K [2]): >95% | DC50 (Cyclin K [2]): 199 nM | fold decrease in degradation ability versus pyridine counterpart (Cyclin K [2]; furan analogues vs 1 (CR8), 36, 40): 4–8 fold | Kd (CDK12): 640 nM | Papp (PAMPA permeability): 33.7 ×10⁻⁶ cm/s

CC[C@H](CO)Nc1nc(NCc2ccc(-c3cn(C)cn3)cc2)c2ncn(C(C)C)c2n1 [compound 30]
cyclin K degradation (Cyclin K [1]): decreased degradation ability | Remaining Cyclin K (%) (Cyclin K [1]): 38 ± 21% | Papp (PAMPA permeability): < 0.3 ×10⁻⁶ cm/s

CC[C@H](CO)Nc1nc(NCc2ccc(-c3cn[nH]c3)cc2)c2ncn(C(C)C)c2n1 [compound 31]
cyclin K degradation (Cyclin K [1]): complete loss of degradation | Remaining Cyclin K (%) (Cyclin K [1]): 93 ± 10% | PAMPA permeability (PAMPA permeability): low permeability | Papp (PAMPA permeability): < 0.2 ×10⁻⁶ cm/s

OCCC1CCCCN1c1cc(NCc2ccc(C3=CCOCC3)cc2)n2ncc(Br)c2n1 (stereo not shown) [compound 37]
cyclin K degradation (Cyclin K [1]): only partial degradation | Remaining Cyclin K (%) (Cyclin K [1]): 32 ± 11% | DMax (%) (Cyclin K [2]): 75% | DC50 (Cyclin K [2]): 41 nM | fold better CDK12 affinity versus CR8/seliciclib-core analogue (CDK12; 36 vs 1, 37 vs 21): 25 fold | Kd (CDK12): 12 nM | number of proteins showing at least a −0.5 log2 fold change (HEK293T cells): 28 proteins | cyclin K log2 fold decrease (HEK293T cells): 0.75 log2 fold | log2FC compound 37 (HEK293T cells; protein ARF4): 0.5982 | log2FC compound 37 (HEK293T cells; protein C1orf167): 0.8136 | log2FC compound 37 (HEK293T cells; protein CBX6): -0.9913 | log2FC compound 37 (HEK293T cells; protein CCNE2): 0.934 | log2FC compound 37 (HEK293T cells; protein CCNK (Cyclin-K)): -0.7468 | log2FC compound 37 (HEK293T cells; protein CD9): 0.636 | log2FC compound 37 (HEK293T cells; protein CD59): 1.0368 | log2FC compound 37 (HEK293T cells; protein CD63): 1.1474 | log2FC compound 37 (HEK293T cells; protein CD151): 0.6898 | log2FC compound 37 (HEK293T cells; protein CDKL5): 1.0373 | log2FC compound 37 (HEK293T cells; protein CHCHD2): -1.0001 | log2FC compound 37 (HEK293T cells; protein CHTOP): -0.8383 | log2FC compound 37 (HEK293T cells; protein COPRS): 0.6 | log2FC compound 37 (HEK293T cells; protein COX6B1): 0.6513 | log2FC compound 37 (HEK293T cells; protein COX7A2): -1.2026 | log2FC compound 37 (HEK293T cells; protein DCDC1): 1.1229 | log2FC compound 37 (HEK293T cells; protein DDX56): -0.6203 | log2FC compound 37 (HEK293T cells; protein DHX58): 0.8865 | log2FC compound 37 (HEK293T cells; protein ECI1): 0.6918 | log2FC compound 37 (HEK293T cells; protein EI24): 0.7719 | log2FC compound 37 (HEK293T cells; protein FAM234A): 0.6256 | log2FC compound 37 (HEK293T cells; protein FITM2): 0.6697 | log2FC compound 37 (HEK293T cells; protein FYTTD1): -2.375 | log2FC compound 37 (HEK293T cells; protein H2AC6): -2.0131 | log2FC compound 37 (HEK293T cells; protein H2AC14): -1.9547 | log2FC compound 37 (HEK293T cells; protein HES1): -0.614 | log2FC compound 37 (HEK293T cells; protein HEY1): -0.6221 | log2FC compound 37 (HEK293T cells; protein HMGN2): -0.636 | log2FC compound 37 (HEK293T cells; protein KCTD1): 0.7125 | log2FC compound 37 (HEK293T cells; protein LIPA): 0.6704 | log2FC compound 37 (HEK293T cells; protein LPCAT3): 1.2861 | log2FC compound 37 (HEK293T cells; protein LPIN2): 0.6164 | log2FC compound 37 (HEK293T cells; protein LSM1): 0.8572 | log2FC compound 37 (HEK293T cells; protein MBTPS2): 0.6567 | log2FC compound 37 (HEK293T cells; protein MEIS1): -0.7346 | log2FC compound 37 (HEK293T cells; protein MGARP): 0.6836 | log2FC compound 37 (HEK293T cells; protein MSMO1): 0.6345 | log2FC compound 37 (HEK293T cells; protein MT-ND4): 0.6222 | log2FC compound 37 (HEK293T cells; protein NSA2): -1.3835 | log2FC compound 37 (HEK293T cells; protein NXT2): 1.1373 | log2FC compound 37 (HEK293T cells; protein PPP1CB): -0.7306 | log2FC compound 37 (HEK293T cells; protein PPP1R15B): -0.7195 | log2FC compound 37 (HEK293T cells; protein PRNP): 0.8396 | log2FC compound 37 (HEK293T cells; protein RER1): 0.5962 | log2FC compound 37 (HEK293T cells; protein RPF1): -0.9869 | log2FC compound 37 (HEK293T cells; protein RPS14): -0.5979 | log2FC compound 37 (HEK293T cells; protein RPS29): -0.7373 | log2FC compound 37 (HEK293T cells; protein SIAE): 0.6299 | log2FC compound 37 (HEK293T cells; protein SLC44A2): 0.8263 | log2FC compound 37 (HEK293T cells; protein SNAI2): -1.0919 | log2FC compound 37 (HEK293T cells; protein SURF6): -0.5977 | log2FC compound 37 (HEK293T cells; protein TMSB4X): -0.7637 | log2FC compound 37 (HEK293T cells; protein TOB1): -1.2431 | log2FC compound 37 (HEK293T cells; protein TOB2): -0.8728 | log2FC compound 37 (HEK293T cells; protein TVP23C): 0.6132 | log2FC compound 37 (HEK293T cells; protein WHAMM): -1.0385 | log2FC compound 37 (HEK293T cells; protein ZBTB17): 0.799 | log2FC compound 37 (HEK293T cells; protein ZKSCAN2): -0.5989 | log2FC compound 37 (HEK293T cells; protein ZNF92): -0.7406 | log2FC compound 37 (HEK293T cells; protein ZNF385A): -0.6523

CCc1cnn2c(NCc3ccc[n+]([O-])c3)cc(N3CCCC[C@H]3CCO)nc12 [dinaciclib]
activity at CDK1 (CDK1): sub-μM activity | activity at CDK5 (CDK5): sub-μM activity
